Values of other authors as cited in US20150320893A1, “TREATMENT OF LATENT HIV INFECTION” (priority 2012, published 2015).

Test system: latent virus in harboring cells
Conditions: by manipulating the PKC pathway(s) within the cell

Q: Which “ability to induce latent viral replication” value does the source give for `CC(=O)O[C@@]12C[C@@H](C)[C@@]3(O)[C@@H](C=C(CO)C[C@]4(O)C(=O)C(C)=C[C@@H]34)[C@@H]1C2(C)C` [Prostratin] here?
A: induce latent viral replication without encouraging cell cycle progression

Q: Which “ability to induce latent viral replication” value does the source give for `CCC/C=C/C=C/C(=O)O[C@H]1/C(=C/C(=O)OC)C[C@H]2C[C@H]([C@@H](C)O)OC(=O)C[C@H](O)C[C@@H]3C[C@H](OC(C)=O)C(C)(C)[C@](O)(C[C@@H]4C/C(=C/C(=O)OC)C[C@H](/C=C/C(C)(C)[C@]1(O)O2)O4)O3` [bryostatin-1, bryostatin 1] here?
A: induce latent viral replication without encouraging cell cycle progression
